The results in this text go back to US9040530B2, “1,2,4-triazine-6-carboxamide kinase inhibitors” (Portola Pharmaceuticals, Inc., priority 2012, dated 2015).

In general, IC50 refers to the point on the concentration scale where inhibition reaches its midpoint.

The assay addresses T1, full length active recombinant SYK enzyme (Homo sapiens, UniProt P43405).
T1 construct: full length active recombinant SYK enzyme (Millipore, Calif.); purchased Millipore
In words: Inhibition of Syk tyrosine phosphorylation activity (LANCE TR-FRET kinase assay). It counts as biochemical. The following applies: 1 nM active SYK enzyme, 550 nM SYK-substrate, 100 μM ATP, 1 hour at room temperature. (In general: Time-resolved FRET reads energy transfer from a long-lived donor to a nearby acceptor.)
In the case of `CC[C@@H](Nc1nnc(C(N)=O)c(Nc2cccc3c2ccn3C)n1)C(N)=O` [Example 80, (R)-3-((1-amino-1-oxobutan-2-yl)amino)-5-((1-methyl-1H-indol-4-yl)amino)-1,2,4-triazine-6-carboxamide], the IC50 was 1 to 10 nM.
As for `NC(=O)c1nnc(N[C@@H]2CCCC[C@@H]2N)nc1Nc1ccc(Cl)cc1` [Example 27, 3-(((1R,2S)-2-aminocyclohexyl)amino)-5-((4-chlorophenyl)amino)-1,2,4-triazine-6-carboxamide], the IC50 lay in the range of 1 to 10 nM.
The value for `CC[C@@H](Nc1nnc(C(N)=O)c(Nc2ccc(C)cc2)n1)C(N)=O` [Example 10, (R)-3-((1-amino-1-oxobutan-2-yl)amino)-5-(p-tolylamino)-1,2,4-triazine-6-carboxamide] was 10 to 100 nM; that for `NC(=O)c1nnc(N[C@@H]2CCCC[C@@H]2N)nc1Nc1ccc(F)nc1` [Example 67, 3-(((1R,2S)-2-aminocyclohexyl)amino)-5-((6-fluoropyridin-3-yl)amino)-1,2,4-triazine-6-carboxamide] was 100 to 1000 nM; that for `NC(=O)c1nnc(N[C@@H]2CCCC[C@@H]2N)nc1Nc1ccc(-c2ncccn2)cc1` [Example 3, 3-(((1R,2S)-2-aminocyclohexyl)amino)-5-((4-(pyrimidin-2-yl)phenyl)amino)-1,2,4-triazine-6-carboxamide] was 1 to 10 nM.
With `CC[C@@H](Nc1nnc(C(N)=O)c(Nc2ccc(C(F)(F)F)cc2)n1)C(N)=O` [Example 169, (R)-3-((1-amino-1-oxobutan-2-yl)amino)-5-((4-(trifluoromethyl)phenyl)amino)-1,2,4-triazine-6-carboxamide] the figure was 10 to 100 nM; with `NC(=O)c1nnc(N[C@@H]2CCCC[C@@H]2N)nc1Nc1cnc2ccc(F)cc2c1` [Example 122, 3-(((1R,2S)-2-aminocyclohexyl)amino)-5-((6-fluoroquinolin-3-yl)amino)-1,2,4-triazine-6-carboxamide], 10 to 100 nM.
With `Cn1ccc2ccc(Nc3nc(N[C@@H]4CCCC(F)(F)[C@@H]4N)nnc3C(N)=O)cc21` [Example 166, 3-(((1R,2R)-2-amino-3,3-difluorocyclohexyl)amino)-5-((1-methyl-1H-indol-6-yl)amino)-1,2,4-triazine-6-carboxamide] the figure was 10 to 100 nM.
Turning to `Cn1cc(C#N)c2ccc(Nc3nc(N[C@H](CC4CC4)C(N)=O)nnc3C(N)=O)cc21` [Example 178, (R)-3-((1-amino-3-cyclopropyl-1-oxopropan-2-yl)amino)-5-((3-cyano-1-methyl-1H-indol-6-yl)amino)-1,2,4-triazine-6-carboxamide], the IC50 is 1 to 10 nM.
The value for `Cn1cc(C#N)c2ccc(Nc3nc(N[C@H](CC(F)F)C(N)=O)nnc3C(N)=O)cc21` [Example 147, (R)-3-((1-amino-4,4-difluoro-1-oxobutan-2-yl)amino)-5-((3-cyano-1-methyl-1H-indol-6-yl)amino)-1,2,4-triazine-6-carboxamide] was 1 to 10 nM; that for `CC[C@@H](Nc1nnc(C(N)=O)c(Nc2ccc3c(c2)CCOC3)n1)C(N)=O` [Example 212, (R)-3-((1-amino-1-oxobutan-2-yl)amino)-5-(isochroman-6-ylamino)-1,2,4-triazine-6-carboxamide] was 10 to 100 nM; that for `NC(=O)c1nnc(N[C@@H]2CCCC[C@@H]2N)nc1Nc1ccc(F)cc1` [Example 25, 3-(((1R,2S)-2-aminocyclohexyl)amino)-5-((4-fluorophenyl)amino)-1,2,4-triazine-6-carboxamide] was 10 to 100 nM.
For the molecule `Cn1ccc2cc(Nc3nc(N[C@@H]4CCCC[C@@H]4N)nnc3C(N)=O)ccc21` [Example 118, 3-(((1R,2S)-2-aminocyclohexyl)amino)-5-((1-methyl-1H-indol-5-yl)amino)-1,2,4-triazine-6-carboxamide], the IC50 was in the range of 1 to 10 nM.
The value for `CC[C@@H](Nc1nnc(C(N)=O)c(Nc2ccc(C)c(Cl)c2)n1)C(N)=O` [Example 222, (R)-3-((1-amino-1-oxobutan-2-yl)amino)-5-((3-chloro-4-methylphenyl)amino)-1,2,4-triazine-6-carboxamide] was 10 to 100 nM; that for `NC(=O)c1nnc(N[C@@H]2CCCC[C@@H]2N)nc1Nc1ccc(-n2cncn2)cc1` [Example 106, 5-((4-(1H-1,2,4-triazol-1-yl)phenyl)amino)-3-(((1R,2S)-2-aminocyclohexyl)amino)-1,2,4-triazine-6-carboxamide] was 10 to 100 nM.
Turning to `CC[C@@H](Nc1nnc(C(N)=O)c(Nc2cncc(F)c2)n1)C(N)=O` [Example 15, (R)-3-((1-amino-1-oxobutan-2-yl)amino)-5-((5-fluoropyridin-3-yl)amino)-1,2,4-triazine-6-carboxamide], the IC50 was in the range of 100 to 1000 nM.
The value for `N#Cc1ccc(Nc2nc(N[C@@H]3CCOC[C@@H]3N)nnc2C(N)=O)cc1` [Example 76, 3-(((3R,4R)-3-aminotetrahydro-2H-pyran-4-yl)amino)-5-((4-cyanophenyl)amino)-1,2,4-triazine-6-carboxamide] was 100 to 1000 nM; that for `C[N+]1([O-])CCC(c2ccc(Nc3nc(N[C@@H]4CCCC[C@@H]4N)nnc3C(N)=O)cc2)CC1` (stereo partly drawn) [Example 29, 4-(4-((3-(((1R,2S)-2-aminocyclohexyl)amino)-6-carbamoyl-1,2,4-triazin-5-yl)amino)phenyl)-1-methylpiperidine 1-oxide] was 10 to 100 nM; that for `CC[C@@H](Nc1nnc(C(N)=O)c(Nc2ccc(C)c(F)c2)n1)C(N)=O` [Example 196, (R)-3-((1-amino-1-oxobutan-2-yl)amino)-5-((3-fluoro-4-methylphenyl)amino)-1,2,4-triazine-6-carboxamide] was 10 to 100 nM.
For the molecule `Cc1ccc(Nc2nc(N[C@@H](C(N)=O)C(C)C)nnc2C(N)=O)cc1C` [Example 208, (R)-3-((1-amino-3-methyl-1-oxobutan-2-yl)amino)-5-((3,4-dimethylphenyl)amino)-1,2,4-triazine-6-carboxamide], the IC50 was 10 to 100 nM.
With `CC(C)C[C@@H](Nc1nnc(C(N)=O)c(Nc2cncc(F)c2)n1)C(N)=O` [Example 16, (R)-3-((1-amino-4-methyl-1-oxopentan-2-yl)amino)-5-((5-fluoropyridin-3-yl)amino)-1,2,4-triazine-6-carboxamide] the figure was 100 to 1000 nM; with `NC(=O)c1nnc(N[C@@H]2CCCC[C@@H]2N)nc1Nc1ccccc1` [Example 69, 3-(((1R,2S)-2-aminocyclohexyl)amino)-5-(phenylamino)-1,2,4-triazine-6-carboxamide], 1 to 10 nM; with `Cc1ccc(Nc2nc(N[C@H](CC(C)C)C(N)=O)nnc2C(N)=O)cc1C` [Example 209, (R)-3-((1-amino-4-methyl-1-oxopentan-2-yl)amino)-5-((3,4-dimethylphenyl)amino)-1,2,4-triazine-6-carboxamide], 1 to 10 nM.
For `NC(=O)c1nnc(N[C@@H]2CCOC[C@@H]2N)nc1Nc1ccc2c(c1)CCC2` [Example 223, 3-(((3R,4R)-3-aminotetrahydro-2H-pyran-4-yl)amino)-5-((2,3-dihydro-1H-inden-5-yl)amino)-1,2,4-triazine-6-carboxamide], the IC50 lay in the range of 1 to 10 nM.
The value for `C[C@@H](Nc1nnc(C(N)=O)c(Nc2ccc3ccn(C)c3c2)n1)C(N)=O` [Example 164, (R)-3-((1-amino-1-oxopropan-2-yl)amino)-5-((1-methyl-1H-indol-6-yl)amino)-1,2,4-triazine-6-carboxamide] was 10 to 100 nM.
With `Cn1ccc2c(Nc3nc(N[C@@H]4CCCC[C@@H]4N)nnc3C(N)=O)ccnc21` [Example 129, 3-(((1R,2S)-2-aminocyclohexyl)amino)-5-((1-methyl-1H-pyrrolo[2,3-b]pyridin-4-yl)amino)-1,2,4-triazine-6-carboxamide] the figure was less than 1 nM; with `NC(=O)c1nnc(N[C@@H]2CCCC[C@@H]2N)nc1Nc1csc2ncccc12` [Example 37, 3-(((1R,2S)-2-aminocyclohexyl)amino)-5-(thieno[2,3-b]pyridin-3-ylamino)-1,2,4-triazine-6-carboxamide], 1 to 10 nM; with `NC(=O)c1nnc(N[C@@H]2CCCC(F)(F)[C@@H]2N)nc1Nc1cccc(-c2ncccn2)c1` [Example 2, 3-(((1R,2R)-2-amino-3,3-difluorocyclohexyl)amino)-5-((3-(pyrimidin-2-yl)phenyl)amino)-1,2,4-triazine-6-carboxamide], 100 to 1000 nM.
The value for `NC(=O)c1nnc(N[C@@H]2CCOC[C@@H]2N)nc1Nc1cnc2cccnc2c1` [Example 257, 5-((1,5-naphthyridin-3-yl)amino)-3-(((3R,4R)-3-aminotetrahydro-2H-pyran-4-yl)amino)-1,2,4-triazine-6-carboxamide] was 100 to 1000 nM; that for `COc1ccc(Nc2nc(N[C@H](CC(C)C)C(N)=O)nnc2C(N)=O)cc1C(F)(F)F` [Example 113, (R)-3-((1-amino-4-methyl-1-oxopentan-2-yl)amino)-5-((4-methoxy-3-(trifluoromethyl)phenyl)amino)-1,2,4-triazine-6-carboxamide] was 10 to 100 nM; that for `Cn1ncc2c(Nc3nc(N[C@@H]4CCOC[C@@H]4N)nnc3C(N)=O)cccc21` [Example 139, 3-(((3R,4R)-3-aminotetrahydro-2H-pyran-4-yl)amino)-5-((1-methyl-1H-indazol-4-yl)amino)-1,2,4-triazine-6-carboxamide] was 10 to 100 nM.
In the case of `NC(=O)c1nnc(N[C@@H]2CCCC(F)(F)[C@@H]2N)nc1Nc1ccc2ncccc2c1` [Example 49, 3-(((1R,2R)-2-amino-3,3-difluorocyclohexyl)amino)-5-(quinolin-6-ylamino)-1,2,4-triazine-6-carboxamide], the IC50 fell in the range of 10 to 100 nM.
The value for `NC(=O)c1nnc(N[C@@H]2CCCC[C@@H]2N)nc1Nc1ccc2scnc2c1` [Example 41, 3-(((1R,2S)-2-aminocyclohexyl)amino)-5-(benzo[d]thiazol-5-ylamino)-1,2,4-triazine-6-carboxamide] was 1 to 10 nM.
